# Legend:
# HIV integrase = target: T1, HIV integrase (Human immunodeficiency virus type 1 group M subtype B, UniProt P04585); test: integrase inhibition assay in which strand transfer is catalyzed by recombinant integrase; type: biochemical; conditions: assay of Example 193 of WO 02/30930
# T1 construct: strand transfer is catalyzed by recombinant integrase
# Excerpt: Compound A is an inhibitor of HIV integrase. […] The strand transfer assay is described in Example 193 of WO 02/30930.
# [1] = test system: HIV infection of T-lymphoid cells; test: inhibition of acute HIV infection of T-lymphoid cells; type: cell-based; conditions: in accordance with Vacca et al.
# [2] = solubility in ethanol containing water; type: physicochemical; conditions: ethanol containing 1 to 5 vol. % and 10 vol% water
# Method: Experiments have been conducted in which the Compound A K salt ethanolate of the present invention was slurried in ethanol containing 1, 2, 3, 4, 5 and 10 vol. % water, followed by measurement of the XRPD patterns of the collected crystals. In addition, the solubility of the Compound A K salt ethanolate was also determined for the 1 to 5 vol. % and 10 vol% water in ethanol solutions. […] Accordingly, it is believed that the crystalline ethanolate hydrate material of the present invention exists as a water-ethanol isomorphic co-solvate. […] In accordance with these experimental results, the crystalline potassium salt ethanolate of Compound A of the invention can contain water as a co-solvate up to a maximum water content, beyond which the crystalline salt (as shown by the XRPD and solubility results described above) changes to another form.
# solubility in water = type: physicochemical; conditions: compared to the free base
# [3] = pharmacokinetics in animal models; type: in vivo; conditions: over the free base
# [4] = oral bioavailability and pharmacokinetics in rats; type: in vivo; conditions: relative to amorphous and crystalline Compound A
# [5] = oral bioavailability and pharmacokinetics in dogs; type: in vivo; conditions: relative to amorphous and crystalline Compound A
# hygroscopicity = type: physicochemical; conditions: compared with the sodium salt of Compound A
# stability of the salt = type: physicochemical; conditions: compared with the sodium salt of Compound A
# [6] = listed as crystalline potassium salt of Compound A
smiles,measurement,setting,value
"CNC(=O)c1cc(F)ccc1CNC(=O)c1nc(N2CCCCS2(=O)=O)c2cccnc2c1O [Compound A, 5-(1,1-dioxido-1,2-thiazinan-2-yl)-N-{4-fluoro-2-[(methylamino)carbonyl]benzyl}-8-hydroxy-1,6-naphthyridine-7-carboxamide]",inhibition of HIV integrase (strand transfer),HIV integrase,potent inhibitor
same,inhibition of acute HIV infection of T-lymphoid cells,[1],active
"CNC(=O)c1cc(F)ccc1CNC(=O)c1nc(N2CCCCS2(=O)=O)c2cccnc2c1[O-].[K+] [Salt A1, Potassium 5-(1,1-dioxido-1,2-thiazinan-2-yl)-7-[({4-fluoro-2-[(methylamino)carbonyl]benzyl}amino)carbonyl]-1,6-naphthyridin-8-olate]",solubility trend,[2],increasing solubility from 1 to 5 vol % reversed to lower solubility at 10 vol. %
"CNC(=O)c1cc(F)ccc1CNC(=O)c1nc(N2CCCCS2(=O)=O)c2cccnc2c1[O-].[K+] [potassium salt of Compound A, Potassium 5-(1,1-dioxido-1,2-thiazinan-2-yl)-7-[({4-fluoro-2-[(methylamino)-carbonyl]benzyl}amino)carbonyl]-1,6-naphthyridin-8-olate]",solubility in water,solubility in water,significantly more soluble
same,pharmacokinetics,[3],improved
same,AUC,[4],improved
same,Cmax,[4],improved
same,oral bioavailability,[4],superior
same,AUC,[5],improved
same,Cmax,[5],improved
same,oral bioavailability,[5],superior
same,hygroscopicity,hygroscopicity,significantly less hygroscopic
same,hygroscopicity,hygroscopicity; [6],less
same,stability,stability of the salt,more stable
same,stability,stability of the salt; [6],improved

# Source: patent US20060211687A1, “Potassium salt of an hiv integrase inhibitor” (priority 2003, published 2006)
